This is an account of results in ChEMBL document CHEMBL1123973, “Renin inhibitors containing hydrophilic groups. Tetrapeptides with enhanced aqueous solubility and nanomolar potency” (J Med Chem, 1988).

Data set [1] can be described thus: physchem. As to conditions: phosphate buffer, pH 7.4, S.
Description: Solubility (phosphate buffer, pH 7.4)
The species named for data set [2] is Sus scrofa. Kind of data set: Concentration required for 50% inhibition of porcine kidney renin at 10e-7 nM concentration. The format is functional.
Data set [3] is described as follows: Partition coefficient (logD) (octanol/citric acid-phosphate buffer).
The nature of data set [4]: physchem. The note with it: S.
For data set [5], the system named is Canis familiaris. Description: Change in mean blood pressure (MBP) in dog 3 after oral administration after a period of 15 min. It is filed as functional, Canis lupus familiaris.
Data set [6] has as its system Canis familiaris. Description: Change in mean blood pressure (MBP) in dog 2 after oral administration after a period of 30 min. It is filed as functional, Canis lupus familiaris.
Data set [7] concerns Canis familiaris. Kind of data set: Change in mean blood pressure (MBP) in dog 3 after oral administration after a period of 60 min. The format is functional, Canis lupus familiaris.
Data set [8] deals with Canis familiaris. Kind of data set: Change in mean blood pressure (MBP) in dog 1 after oral administration after a period of 90 min. It is filed as functional, Canis lupus familiaris.
The test system of data set [9] is Canis familiaris. Kind of data set: Change in mean blood pressure (MBP) in dog 2 after oral administration after a period of 180 min. It is filed as functional, Canis lupus familiaris.
Data set [10] has as its system Canis familiaris. Kind of data set: Change in mean blood pressure (MBP) in dog 2 after oral administration after a period of 60 min. It is filed as functional, Canis lupus familiaris.
For data set [11], the system named is Canis familiaris. Kind of data set: Change in mean blood pressure (MBP) in dog 3 after oral administration after a period of 30 min. The format is functional, Canis lupus familiaris.
For data set [12], the system named is Canis familiaris. Kind of data set: Change in mean blood pressure (MBP) in dog 3 after oral administration after a period of 75 min. It is filed as functional, Canis lupus familiaris.
For data set [13], the system named is Canis familiaris. Description: Change in mean blood pressure (MBP) in dog 1 after oral administration after a period of 240 min. It is filed as functional, Canis lupus familiaris.
Data set [14] relates to Canis familiaris. Description: Change in mean blood pressure (MBP) in dog 1 after oral administration after a period of 60 min. The format is functional, Canis lupus familiaris.
The test system of data set [15] is Canis familiaris. Kind of data set: Change in mean blood pressure (MBP) in dog 2 after oral administration after a period of 240 min. It is filed as functional, Canis lupus familiaris.
Data set [16] deals with Canis familiaris. Description: Change in mean blood pressure (MBP) in dog 3 after oral administration after a period of 45 min. The format is functional, Canis lupus familiaris.
Data set [17] relates to Canis familiaris. Kind of data set: Change in mean blood pressure (MBP) in dog 3 after oral administration after a period of 180 min. The format is functional, Canis lupus familiaris.
Data set [18] relates to Canis familiaris. Description: Change in mean blood pressure (MBP) in dog 1 after oral administration after a period of 180 min. The format is functional, Canis lupus familiaris.
For data set [19], the system named is Canis familiaris. Description: Change in mean blood pressure (MBP) in dog 1 after oral administration after a period of 45 min. The format is functional, Canis lupus familiaris.
Data set [20] relates to Canis familiaris. Description: Change in mean blood pressure (MBP) in dog 3 after oral administration after a period of 90 min. The format is functional, Canis lupus familiaris.
For data set [21], the system named is Canis familiaris. Description: Change in mean blood pressure (MBP) in dog 3 after oral administration after a period of 120 min. It is filed as functional, Canis lupus familiaris.
For data set [22], the system named is Canis familiaris. Description: Change in mean blood pressure (MBP) in dog 1 after oral administration after a period of 75 min. It is filed as functional, Canis lupus familiaris.
For data set [23], the system named is Canis familiaris. Kind of data set: Change in mean blood pressure (MBP) in dog 1 after oral administration after a period of 150 min. It is filed as functional, Canis lupus familiaris.
The subject of data set [24] is Canis familiaris. Description: Change in mean blood pressure (MBP) in dog 3 after oral administration after a period of 240 min. The format is functional, Canis lupus familiaris.
For data set [25], the system named is Canis familiaris. Description: Change in mean blood pressure (MBP) in dog 2 after oral administration after a period of 150 min. It is filed as functional, Canis lupus familiaris.
For data set [26], the system named is Canis familiaris. Kind of data set: Change in mean blood pressure (MBP) in dog 2 after oral administration after a period of 45 min. It is filed as functional, Canis lupus familiaris.
Data set [27] relates to Canis familiaris. Description: Change in mean blood pressure (MBP) in dog 2 after oral administration after a period of 75 min. It is filed as functional, Canis lupus familiaris.
Data set [28] has as its system Canis familiaris. Description: Change in mean blood pressure (MBP) in dog 1 after oral administration after a period of 30 min. The format is functional, Canis lupus familiaris.
The subject of data set [29] is Canis familiaris. Description: Change in mean blood pressure (MBP) in dog 2 after oral administration after a period of 300 min. It is filed as functional, Canis lupus familiaris.
Data set [30] relates to Canis familiaris. Kind of data set: Change in mean blood pressure (MBP) in dog 1 after oral administration after a period of 300 min. The format is functional, Canis lupus familiaris.
The test system of data set [31] is Canis familiaris. Kind of data set: Change in mean blood pressure (MBP) in dog 2 after oral administration after a period of 15 min. The format is functional, Canis lupus familiaris.
In data set [32] the test system is Canis familiaris. Kind of data set: Change in mean blood pressure (MBP) in dog 3 after oral administration after a period of 150 min. It is filed as functional, Canis lupus familiaris.
In data set [33] the test system is Canis familiaris. Kind of data set: Change in mean blood pressure (MBP) in dog 2 after oral administration after a period of 90 min. It is filed as functional, Canis lupus familiaris.
In data set [34] the test system is Canis familiaris. Description: Change in mean blood pressure (MBP) in dog 2 after oral administration after a period of 120 min. The format is functional, Canis lupus familiaris.
In data set [35] the test system is Canis familiaris. Description: Change in mean blood pressure (MBP) in dog 1 after oral administration after a period of 10 min. The format is functional, Canis lupus familiaris.
In data set [36] the test system is Canis familiaris. Description: Change in mean blood pressure (MBP) in dog 1 after oral administration after a period of 120 min. The format is functional, Canis lupus familiaris.
The test system of data set [37] is Canis familiaris. Description: Change in mean blood pressure (MBP) in dog 3 after oral administration after a period of 300 min. It is filed as functional, Canis lupus familiaris.
Data set [38] relates to Canis familiaris. Kind of data set: Change in mean blood pressure (MBP) in dog 1 after oral administration after a period of 15 min. The format is functional, Canis lupus familiaris.
For data set [39] the following is noted: buffer, pH 7.4.
Description: Solubility (phosphate buffer, pH 7.4)

As a reminder, the solubility is how much of the substance goes into solution per volume. A high value points to much dissolved substance. In general, Inhibition refers to the share of the control response that was lost under treatment. The logD is lipophilicity at a set pH, counting ionised and neutral species.

Structures are written as SMILES.

Consider `CC(C)CC(NC(=O)[C@H](Cc1c[nH]cn1)NC(=O)[C@H](Cc1ccccc1)NC(=O)OC(C)(C)C)C(O)CC(=O)N[C@@H](CC(C)C)C(=O)NCCS(=O)(=O)O` (stereo not given in full), for which the solubility in data set [1] and in [4] was over 11 mM throughout. In data set [2], the Inhibition stood at 0%. The logD in [3] was 0.633.
As for `CC(C)C[C@H](NC(=O)CC(O)C(CC1CCCCC1)NC(=O)[C@H](Cc1c[nH]cn1)NC(=O)[C@H](Cc1ccccc1)NC(=O)OC(C)(C)C)C(=O)NCc1cccc(CN)c1` (stereo not given in full), the MBP in data set [5] is 1 mmHg; in data set [6] it was -3 mmHg; in [7] it was -5 mmHg; in [8], 1 mmHg; in data set [9], -2 mmHg; in data set [10] it was 0 mmHg. Further, the MBP is reported as -6 mmHg in [11]; -9 mmHg in [12]; 1 mmHg in data set [13]; -4 mmHg in data set [14]; -1 mmHg in data set [15]; -7 mmHg in [16]. The MBP in data set [17] is -5 mmHg; in [18] it was -13 mmHg; in [19] it was -6 mmHg; in data set [20], -2 mmHg; in data set [21], 1 mmHg; in [22], -7 mmHg. The MBP in data set [23] is on record as -1 mmHg; in [24] it was -3 mmHg; in data set [25], -3 mmHg; in data set [26], -4 mmHg; in data set [27] it was 1 mmHg; in data set [28] it was -2 mmHg. For the same compound, the MBP in [29] is -1 mmHg; in data set [30], -10 mmHg; in data set [31], -6 mmHg; in data set [32], -2 mmHg; in [33], -5 mmHg; in data set [34], -4 mmHg. Also, the MBP is on record as -12 mmHg in [35], -2 mmHg in data set [36], -3 mmHg in data set [37] and -18 mmHg in data set [38].
As for `CC(C)CC(NC(=O)[C@H](Cc1c[nH]cn1)NC(=O)[C@H](Cc1ccccc1)NC(=O)OC(C)(C)C)C(O)CC(=O)N[C@@H](CC(C)C)C(=O)NCCC(N)C(=O)O` (stereo in doubt; 16), the S was determined as 2300 µM. Besides, the S in data set [39] worked out at 6100 µM.
